{
  "source": "patent US11911406B2",
  "about": "“PH-responsive polymer-drug conjugates for enhanced antibacterial efficacy” (priority 2020, dated 2024)",
  "key": {"E. coli ATCC 25922 [1]": {"tested_on": "E. coli ATCC 25922", "test": "Live/Dead bacterial staining assay (AO/EB)", "assay_type": "cell-based", "details": "0.5 h and 3 h", "experimental": "Live/Dead bacterial staining assay. Exponentially growing bacteria (E. coli ATCC 25922) were collected by centrifugation at 8000 rpm for 5 min, washed with saline and diluted to OD 600 value of 0.5. The bacterial suspensions were incubated with different treatments at 37° C. for 0.5 h and 3 h, and then washed with saline and stained by acridine orange (10 μg/mL) and ethidium bromide (EB, […]) solution for 15 min. Afterward, the bacteria were collected via centrifugation, washed with saline for 2 times, resuspended in 70% glycerol and spread on glass slides. The live/dead bacteria were observed by a confocal laser scanning microscope (CLSM)."}, "MRSA biofilm": {"tested_on": "MRSA biofilm", "test": "Biofilm inhibition assay (crystal violet)", "assay_type": "cell-based, S. aureus", "experimental": "Biofilm inhibition assays. Exponentially growing bacteria were inoculated into 96 well plates (1×10^4 cell/well) containing MHB broth with 2% (v/w) glucose, incubated under stationary conditions at 37° C. for one day. After biofilm formation, the media was discarded and the plates were washed with PBS to remove the planktonic bacteria. Fresh NMB broth containing serially diluted free streptomycin or PDC were added to the plates and incubated at 37° C. for another 24 h. The media in each well was then removed, and the plates were washed carefully with PBS for 1 time. The biofilm in each well was fixed with 95% ethanol for 15 min and stained with 0.1% crystal violet for 15 min. After washing with Milli-Q water for three times, 33% v/v acetic acid (100 μL/well) was added to solubilize the crystal violet staining. OD 560 in each well was read to determine the biofilm formation. The biofilm formed as described above was also stained with acridine orange and Cy5 labeled PDC, and monitored by CLSM to observe the PDC penetration."}, "[2]": {"tested_on": "HEK 293 human embryonic kidney cells", "test": "Cell viability test (MTT cytotoxicity)", "assay_type": "cell-based", "details": "48 h, row marked pH 7.4", "experimental": "Cell viability test. Cytotoxicity of different components was tested through MTT assays. HEK 293 human embryonic kidney cells were seeded onto a 96-well plate (1×10^4 cells/well) and cultured overnight. The cells were then treated with various polymers or PDCs with serial dilutions for 48 h and their viability was measured by a standard MTT assay. Data were collected by monitoring the difference between the absorbance at 560 nm and 650 nm using a GloMax-Multi Microplate Multimode Reader (Promega, Wis., USA)."}, "[3]": {"tested_on": "methicillin-resistant S. aureus (MRSA, ATCC 33591)", "test": "Checkerboard assay, FIC index", "assay_type": "cell-based", "experimental": "(§1) Fractional inhibitory concentration (FIC) measurement. The synergy between the cationic polymer and streptomycin was assessed by checkerboard assays. The two antibacterial components were mixed in a 96-well plate with serial two-dimensional dilutions. Bacteria were inoculated in each well of the plate and their growth, reflected by the OD600 value, were monitored. The synergy effect was evaluated by calculating the FIC index according to the formula below:\n(§2) [formula] MICA^Comb and MICB^Comb indicate the MICs of the two components in combination. The interactions between the two components are defined according to standard criteria of considering FIC≤0.5 as synergistic; 0.5<FIC≤1 as additive; 1<FIC≤4 as indifference; and FIC>4 as antagonism."}, "E. coli ATCC 25922 [4]": {"tested_on": "E. coli ATCC 25922", "test": "Checkerboard assay, FIC index", "assay_type": "cell-based", "experimental": "as §1, §2"}, "P. aeruginosa ATCC 27853": {"tested_on": "P. aeruginosa ATCC 27853", "test": "Checkerboard assay, FIC index", "assay_type": "cell-based", "experimental": "as §1, §2"}, "E. coli ATCC 25922 [5]": {"tested_on": "E. coli ATCC 25922", "test": "Evaluation of antibiotic resistance development (serial passaging)", "assay_type": "cell-based", "details": "sub-lethal dose (0.5 MIC)", "experimental": "Evaluation of antibiotic resistance development. E. coli ATCC 25922 was employed to study the drug resistance development under sublethal dose treatments of free streptomycin, cationic polymer or the PDC. During a serial of passages, the MIC of each treatment was measured by the broth microdilution method as described above, and the bacteria were exposed to ½MIC at that particular passage. MIC for each passage was recorded and normalized to that of the first passage to determine the drug resistance enhancement."}, "E. coli ATCC 25922 [6]": {"tested_on": "E. coli ATCC 25922", "test": "Mouse thigh infection model", "assay_type": "in vivo, ICR mice", "details": "single i.v. injection 1 h after infection, equivalent of 5 mg streptomycin/kg, thighs at 24 h", "experimental": "Mouse thigh infection model. ICR mice (female, 22-24 g, Charles River) were intramuscularly inoculated with E. coli ATCC 25922 (2×10^8 CFU/mL in saline, 0.05 mL bacteria suspension per thigh) on their both thighs and randomly divided into 4 groups (n=3). The mice were treated with PBS, free streptomycin (5 mg/kg), […] through i.v. injection 1 h after the infection. 24 h after the inoculation, animals were euthanized by CO2 asphyxiation and thigh muscles were collected and homogenized in 5 mL cold PBS with glass homogenizer. The homogenates in the amount of 0.1 mL were used for serial tenfold dilutions and spread onto nutrient agar plate for CFU determination."}, "[7]": {"tested_on": "broad spectrum of microbes", "test": "MIC, broth microdilution, across the strains tested", "assay_type": "cell-based", "details": "E. coli, MRSA, P. aeruginosa (FIGS. 3G-I)", "experimental": "Bacterial strains. S. aureus Newman was kindly provided by Prof Douglas Weibel; E. coli ATCC25922, S. aureus ATCC 33591 and P. aeruginosa ATCC 27853 were kindly donated by Prof. David Andes. E. coli DH5a was purchased from Thermo Fisher. The bacteria above were grown in Mueller Hinton Broth (MHB) media (Criterion, Santa Maria, Calif., USA). M. smegmatis mc^2155 strain was kindly donated by Prof. Adel M. Talaat, and was grown in Middlebrook 7H9 broth (HiMedia, West Chester, Pa., USA).\nMinimal inhibitory concentration (MIC) measurements. The MIC of the different treatments on various bacteria strains was determined using the broth microdilution method. Briefly, 100 μL of the respective broth media containing serial twofold dilutions of each compound was placed into a 96-well tissue culture plate. Each bacterial strain was taken from an exponentially growing culture and diluted to 5×10^6 CFU/mL. 10 μL of such microbial suspension was inoculated in each well of the plate, resulting in a final bacteria concentration of approximately 5×10^5 CFU/mL. The bacteria were cultured at 37° C. for 24 h and their growth were observed by reading the optical density (OD) at 600 nm. The MIC was determined as the treatment concentration at which no microbial growth was observed. […]"}, "[8]": {"tested_on": "E. coli, MRSA and P. aeruginosa", "test": "Scanning electron microscopy (SEM) observation", "assay_type": "cell-based", "details": "pH 6.0, 3 h", "experimental": "Scanning electron microscopy (SEM) observation. Bacteria suspensions were prepared as above and treated with PDC at different pH for 3 h, washed with saline and fixed with 2.5% glutaraldehyde at 4° C. overnight. The samples were washed with Milli-Q water and dehydrated with a series of graded ethanol solutions (50%, 75%, 90%, 100%, each for 5 min). After drying for 1 day, the samples were coated with platinum and observed by SEM (Zeiss/LEO 1530)."}},
  "data": [
    {"substance": "Hex-Cys-Cys-DET-strep-DMA [Neutralized PDC]", "values": [
      {"measurement": "bactericidal effect / EB staining, in words", "setting": "E. coli ATCC 25922 [1]", "result": "much delayed and pH-dependent bactericidal effect"},
      {"measurement": "biofilm removed", "setting": "MRSA biofilm; equivalent of 32 μg/mL streptomycin, acidic conditions", "result": "More than 90%"},
      {"measurement": "biofilm eliminated", "setting": "MRSA biofilm; streptomycin concentration 16 μg/mL", "result": 75, "unit": "%"},
      {"measurement": "HEK293 IC50", "setting": "[2]", "result": ">2000", "unit": "µg/mL"},
      {"measurement": "FICI of the two components in the PDC (tethered together)", "setting": "[3]", "result": 0.475},
      {"measurement": "FICI of the two components in the PDC (tethered together)", "setting": "E. coli ATCC 25922 [4]", "result": 0.362},
      {"measurement": "FICI of the two components in the PDC (tethered together)", "setting": "P. aeruginosa ATCC 27853", "result": 0.306},
      {"measurement": "increase in MIC after 20 passages", "setting": "E. coli ATCC 25922 [5]", "result": 2, "unit": "fold"},
      {"measurement": "reductions in CFU", "setting": "E. coli ATCC 25922 [6]", "result": "more than 4 orders"},
      {"measurement": "effect of pH (6.0 vs 7.4) on MIC, in words", "setting": "[7]", "result": "performed significantly better at pH 6.0 than at 7.4"},
      {"measurement": "bacterial membrane morphology (SEM), in words", "setting": "[8]", "result": "severe membrane disruption and deformation"}
    ]}
  ]
}
